In experiment [1] the target is human IRE-1α (GST-IRE-1α) (Homo sapiens (Human), UniProt O75460). Kind of experiment: IRE-1α assay (cleavage of mini-XBP-1 mRNA stem-loop substrate). The class given is biochemical. To be noted: average IC50 for inhibition of IRE-1α in vitro. On the procedure:
A fusion protein comprising glutathione S transferase (GST) and human IRE-1α (GST-IRE-1α) obtained from a 500 ml baculovirus-infected insect cell culture can be used to measure IRE-1α activity in vitro. Five μl of a reaction mixture comprising 1× reaction buffer (5× reaction buffer is 100 mM Hepes pH 7.5, 250 mM KOAc, 2.5 mM MgCl2), 3 mM DTT, and 0.4% polyethylene glycol water is added to each well of 384 well plates. Twenty-five nanoliters of a 1 mM test compound solution are added to test wells. […] Negative control wells contain only reaction mixture and test compound. After spinning the plates at 1200 rpm for 30 seconds, 3 μl of an IRE-1α human mini-XBP-1 mRNA stem-loop substrate [NT] ID NO:1), labeled with the fluorescent dye Cy5 at the [NT] end, are added to each well of a control plate. The plates are again spun at 1200 rpm for 30 seconds. […] The plates are covered with lids and incubated for one hour at 30° C. The plates are then transferred to an […] microplate reader. Data is analyzed using data analysis software, and the percent activity of IRE-1α is calculated.

The subject of experiment [2] is IRE-1α-mediated XBP-1 splicing in human myeloma MM.1s cells. As to the kind of experiment: Cellular XBP-1 splicing assay in myeloma cells (RT-PCR). The class given is cell-based. Conditions: average EC50, endogenous XBP-1 splicing in myeloma cells, DTT stress. On the procedure:
After an additional 45 minutes (2 hours total) with compound and DTT, the cells are harvested with TRIZOL® (a mono-phasic solution of phenol and guanidine isothiocyanate), and total RNA is prepared as directed by the manufacturer (Invitrogen). Human XBP-1 is amplified by RT-PCR with the following primers, which flank the 26 base unconventional intron excised by IRE-1α:
RT-PCR of unstressed (U) cells then generates the upper band. When cells are stressed (S) with the endoplasmic reticulum (ER) stressing agent DTT, IRE-1α is activated due to accumulating unfolded protein and the resulting RT-PCR product is 26 base pairs shorter.
Compounds which pass specificity assays are assayed for cellular EC50 using endogenous XBP-1 splicing in myeloma cells. XBP-1 is regulated through the excision of a 26 nucleotide intron from the XBP-1 mRNA by the highly specific endoribonuclease activity of IRE-1α. […] This splicing event is used to measure IRE-1α activity on XBP-1 mRNA in cells and tissues.
Briefly, compounds are incubated in the presence or absence of an ER stress agent (e.g., DTT), and the ratio of XBP-1u (unspliced) to XBP-1s (spliced) is quantified by RT-PCR.

Sequence of human IRE-1α (GST-IRE-1α) (O75460 19-977): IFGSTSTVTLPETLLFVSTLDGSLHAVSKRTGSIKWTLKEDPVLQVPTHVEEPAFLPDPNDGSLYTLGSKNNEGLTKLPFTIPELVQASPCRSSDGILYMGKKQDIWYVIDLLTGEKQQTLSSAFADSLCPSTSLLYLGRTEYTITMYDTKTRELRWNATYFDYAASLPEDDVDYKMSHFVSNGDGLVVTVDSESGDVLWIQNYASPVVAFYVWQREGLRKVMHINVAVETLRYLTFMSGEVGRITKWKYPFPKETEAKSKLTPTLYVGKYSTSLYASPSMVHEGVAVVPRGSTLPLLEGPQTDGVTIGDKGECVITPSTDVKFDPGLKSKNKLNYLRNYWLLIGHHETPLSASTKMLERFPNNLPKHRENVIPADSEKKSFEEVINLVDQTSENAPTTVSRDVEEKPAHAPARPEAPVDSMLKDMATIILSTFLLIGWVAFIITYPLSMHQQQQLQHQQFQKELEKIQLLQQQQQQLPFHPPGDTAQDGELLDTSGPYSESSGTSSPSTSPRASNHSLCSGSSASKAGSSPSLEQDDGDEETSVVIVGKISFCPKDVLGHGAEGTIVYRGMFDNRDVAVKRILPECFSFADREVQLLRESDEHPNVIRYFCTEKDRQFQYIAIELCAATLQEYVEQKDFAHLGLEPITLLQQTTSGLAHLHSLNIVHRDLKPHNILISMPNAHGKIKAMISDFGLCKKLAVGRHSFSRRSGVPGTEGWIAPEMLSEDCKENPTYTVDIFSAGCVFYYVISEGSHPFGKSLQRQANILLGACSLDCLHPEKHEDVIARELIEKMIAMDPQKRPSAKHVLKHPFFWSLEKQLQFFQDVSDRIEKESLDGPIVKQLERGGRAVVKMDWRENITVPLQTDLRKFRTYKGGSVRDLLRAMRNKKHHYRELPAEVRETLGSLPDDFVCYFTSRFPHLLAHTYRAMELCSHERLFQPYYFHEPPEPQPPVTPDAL

Take `CN1CCN(C(=O)c2ccc(Cl)c(-c3ccc4c(C=O)c(O)ccc4c3)c2)CC1` [Compound 27]: in experiment [1], the IC50 (commonly the concentration needed to halve the response being measured) was below 1 µM. The EC50 – broadly, the concentration at which the effect is half-maximal – in experiment [2] (Homo sapiens, MM1.S) is above 10 µM.

`O=Cc1c(O)ccc2cc(N3CCN(Cc4cccnc4)CC3)ccc12` [Compound 100] yielded an IC50 in experiment [1] below 1 µM. Moreover, the EC50 in experiment [2] (Homo sapiens, MM1.S) was above 10 µM.

`O=Cc1c(O)ccc2cc(-c3ccc(C(=O)N4CC5CC4CN5)s3)ccc12` (stereo not shown) [Compound 75] registered an IC50 in experiment [1] below 0.1 µM. In experiment [2] (Homo sapiens, MM1.S), this compound yielded an EC50 below 10 µM.

In experiment [1], `CS(=O)(=O)N1CCN(c2ccc3c(C=O)c(O)ccc3c2)CC1` [Compound 92, 2-Hydroxy-6-(4-methanesulfonyl-piperazin-1-yl)-naphthalene-1-carbaldehyde] gave an IC50 above 1 µM. The compound further gave an EC50 in experiment [2] (Homo sapiens, MM1.S) above 10 µM.

`CN1CCN(C2CCN(c3ccc4c(C=O)c(O)ccc4c3)C2)CC1` (stereo not shown) [Compound 118] registered a concentration for half-maximal inhibition (IC50) in experiment [1] above 1 µM. This compound also yielded an EC50 in experiment [2] (Homo sapiens, MM1.S) below 10 µM.

For the compound `COCCNC(=O)c1cccc(-c2ccc3c(C=O)c(O)ccc3c2)n1` [Compound 6], in experiment [1], the IC50 is below 0.1 µM. In experiment [2] (Homo sapiens, MM1.S), this compound showed an EC50 above 10 µM.

Compound `O=Cc1c(O)ccc2ccc(N3CCC(C(=O)N4CCCCC4)C3)cc12` (stereo not shown) [Compound 133] came in with an IC50 in experiment [1] above 1 µM. For the same compound, the EC50 in experiment [2] (Homo sapiens, MM1.S) is above 10 µM.

In experiment [1], `O=Cc1c(O)ccc2cc(N3CCN(c4cccnc4)CC3)ccc12` [Compound 103] yielded an IC50 above 1 µM. In addition, the 50% effective concentration (EC50) in experiment [2] (Homo sapiens, MM1.S) is above 10 µM.

`COCc1cn(-c2ccc3c(C=O)c(O)ccc3c2)nn1` [Compound 105] returned an IC50 in experiment [1] below 1 µM. For the same compound, in experiment [2] (Homo sapiens, MM1.S), the EC50 was below 10 µM.

On to `CN(C)C1CCN(c2ccc3c(C=O)c(O)ccc3c2)C1` (stereo not shown) [Compound 106], for which the IC50 in experiment [1] was above 1 µM. The compound further gave an EC50 in experiment [2] (Homo sapiens, MM1.S) above 10 µM.

Turning to `CCOC(=O)/C=C/c1ccc2c(C=O)c(O)ccc2c1` [Compound 22], the IC50 in experiment [1] is below 1 µM. Besides, the EC50 in experiment [2] (Homo sapiens, MM1.S) is below 10 µM.

Compound `CN(C)CCCNC(=O)c1ccc(-c2ccc3c(C=O)c(O)ccc3c2)s1` [Compound 74] returned an IC50 in experiment [1] below 1 µM. In addition, the EC50 in experiment [2] (Homo sapiens, MM1.S) was above 10 µM.

Regarding `CN1CCN(C(=O)/C=C/c2ccc3c(C=O)c(O)ccc3c2)CC1` [Compound 63], in experiment [1], the IC50 is below 1 µM. Moreover, the EC50 in experiment [2] (Homo sapiens, MM1.S) is below 10 µM.

In experiment [1], `CN(Cc1ccncc1)C(=O)C1CCN(c2ccc3ccc(O)c(C=O)c3c2)C1` (stereo not shown) [Compound 148] yielded an IC50 above 1 µM. Besides, the EC50 in experiment [2] (Homo sapiens, MM1.S) was above 10 µM.

For the compound `COCCNC(=O)c1ccc(-c2ccc3c(C=O)c(O)ccc3c2)cc1` [Compound 170], the IC50 in experiment [1] was above 1 µM. In experiment [2], the EC50 was below 10 µM.

Regarding `O=Cc1c(O)ccc2cc(-c3cccc(C(=O)N4CCCC4)c3)ccc12` [Compound 1], the half-inhibitory concentration (IC50) in experiment [1] is below 0.1 µM. For the same compound, the EC50 in experiment [2] (Homo sapiens, MM1.S) is below 10 µM.

`CN1CCCC(CNC(=O)c2ccc(-c3ccc4c(C=O)c(O)ccc4c3)s2)C1` (stereo not shown) [Compound 69]: the IC50 in experiment [1] was below 0.1 µM. For the same compound, in experiment [2] (Homo sapiens, MM1.S), the EC50 is below 10 µM.

`Cc1nc(-c2ccc3c(C=O)c(O)ccc3c2)sc1C(=O)N1CCN(C)CC1` [Compound 65] returned an IC50 in experiment [1] below 0.1 µM. Moreover, the EC50 in experiment [2] (Homo sapiens, MM1.S) was below 10 µM.

In turn, `O=Cc1c(O)ccc2cc(N3CCC(N4CCOCC4)CC3)ccc12` [Compound 82] came in with an IC50 in experiment [1] below 1 µM. This compound also gave an EC50 in experiment [2] (Homo sapiens, MM1.S) below 10 µM.

On to `CNC(=O)c1cccc(-c2ccc3c(C=O)c(O)ccc3c2)c1` [Compound 8], for which the IC50 in experiment [1] is below 0.1 µM. The compound also had an EC50 in experiment [2] (Homo sapiens, MM1.S) below 10 µM.

For the compound `O=Cc1c(O)ccc2cc(-c3cc(C(=O)N4CCOCC4)ccc3Cl)ccc12` [Compound 24], the IC50 in experiment [1] was above 1 µM. In addition, in experiment [2] (Homo sapiens, MM1.S), the EC50 was above 10 µM.

`COCCNC(=O)c1cccc(-c2ccc3c(C=O)c(O)ccc3c2)c1` [Compound 4] returned a half-maximal inhibitory concentration (IC50) in experiment [1] below 0.1 µM. The compound further registered an EC50 in experiment [2] (Homo sapiens, MM1.S) below 10 µM.

For the compound `CN(Cc1ccccc1)C1CCN(c2ccc3ccc(O)c(C=O)c3c2)C1` (stereo not shown) [Compound 152], in experiment [1], the IC50 is above 1 µM. Besides, the EC50 in experiment [2] (Homo sapiens, MM1.S) is above 10 µM.

Regarding `CN(C)C(=O)c1ccc(-c2ccc3c(C=O)c(O)ccc3c2)s1` [Compound 12], the IC50 in experiment [1] was below 1 µM. In experiment [2] (Homo sapiens, MM1.S), the response was half-maximal at 10 µM (EC50).

As for `CCN(CC)C(=O)c1ccc(-c2ccc3c(C=O)c(O)ccc3c2)cc1` [Compound 2], the IC50 in experiment [1] was below 1 µM. Moreover, in experiment [2] (Homo sapiens, MM1.S), the EC50 is below 10 µM.

`CC(C)N1CCN(c2ccc3ccc(O)c(C=O)c3c2)CC1` [Compound 159] registered an IC50 in experiment [1] above 1 µM. The EC50 in experiment [2] (Homo sapiens, MM1.S) was above 10 µM.

With `CN1CCN(C(=O)C2CCN(c3ccc4c(C=O)c(O)ccc4c3)CC2)CC1` [Compound 91], in experiment [1], the IC50 is above 1 µM. The compound also displayed an EC50 in experiment [2] (Homo sapiens, MM1.S) above 10 µM.

In experiment [1], `O=Cc1c(O)ccc2cc(Oc3ccc(C(=O)O)cc3)ccc12` [Compound 182] yielded a 50% inhibitory concentration (IC50) below 0.1 µM. In experiment [2] (Homo sapiens, MM1.S), the EC50 is below 10 µM.

As to `O=Cc1c(O)ccc2cc(N3CCC(C(=O)N4CCOCC4)CC3)ccc12` [Compound 110], the IC50 in experiment [1] was below 1 µM. Moreover, in experiment [2] (Homo sapiens, MM1.S), the EC50 is above 10 µM.

For the compound `O=Cc1c(O)ccc2cc(-c3ccc(C(=O)NC4CCNCC4)cc3)ccc12` [Compound 48], the IC50 in experiment [1] was below 0.1 µM. In experiment [2] (Homo sapiens, MM1.S), this compound gave an EC50 below 10 µM.

As for `CN(Cc1ccccc1)C1CCN(c2ccc3c(C=O)c(O)ccc3c2)C1` (stereo not shown) [Compound 146], the IC50 in experiment [1] is above 1 µM. In addition, in experiment [2] (Homo sapiens, MM1.S), the EC50 was above 10 µM.

In turn, `CN1CCN(C(=O)c2coc(-c3ccc4c(C=O)c(O)ccc4c3)n2)CC1` [Compound 76] registered an IC50 in experiment [1] below 1 µM. In addition, in experiment [2] (Homo sapiens, MM1.S), the EC50 was below 10 µM.

The compound `Cc1nc(-c2ccc3c(C=O)c(O)ccc3c2)sc1C(=O)NC1CCNCC1` [Compound 144] came in with an IC50 in experiment [1] below 0.1 µM. The compound also returned an EC50 in experiment [2] (Homo sapiens, MM1.S) below 10 µM.

In turn, `CN(Cc1ccncc1)C1CCN(c2ccc3ccc(O)c(C=O)c3c2)C1` (stereo not shown) [Compound 155] came in with an IC50 in experiment [1] above 1 µM. The compound also registered an EC50 in experiment [2] (Homo sapiens, MM1.S) above 10 µM.

In experiment [1], `O=Cc1c(O)ccc2ccc(OS(=O)(=O)C(F)(F)F)cc12` [Compound 177] gave an IC50 below 1 µM. The same compound yielded an EC50 in experiment [2] (Homo sapiens, MM1.S) above 10 µM.

For the compound `CN1CCC(NC(=O)c2ccc(-c3ccc4c(C=O)c(O)ccc4c3)cc2)CC1` [Compound 143], in experiment [1], the IC50 is above 1 µM. The compound further gave an EC50 in experiment [2] (Homo sapiens, MM1.S) below 10 µM.

As to `CC(=O)N1CCN(c2ccc3c(C=O)c(O)ccc3c2)CC1` [Compound 83], the IC50 in experiment [1] is below 1 µM. The same compound returned an EC50 in experiment [2] (Homo sapiens, MM1.S) above 10 µM.

Consider `O=Cc1c(O)ccc2cc(N3CCN(C4CCNCC4)CC3)ccc12` [Compound 113], for which, in experiment [1], the IC50 is above 1 µM. In addition, the EC50 in experiment [2] (Homo sapiens, MM1.S) was above 10 µM.

The compound `O=Cc1c(O)ccc2cc(-c3ccc(C(=O)NC4CCNCC4)s3)ccc12` [Compound 46] registered an IC50 in experiment [1] below 0.1 µM. The same compound returned an EC50 in experiment [2] (Homo sapiens, MM1.S) below 10 µM.

In turn, `CN1CCN(c2ncc(-c3ccc4c(C=O)c(O)ccc4c3)s2)CC1` [Compound 121] had an IC50 in experiment [1] below 0.1 µM. This compound yielded an EC50 in experiment [2] (Homo sapiens, MM1.S) below 10 µM.

The compound `CN1CCN(c2ncc(-c3ccc4c(C=O)c(O)ccc4c3)cn2)CC1` [Compound 80] displayed an IC50 in experiment [1] below 0.1 µM. Further, in experiment [2] (Homo sapiens, MM1.S), the EC50 was below 10 µM.

`CN(C)C(=O)/C=C/c1ccc2c(C=O)c(O)ccc2c1` [Compound 31] had an IC50 in experiment [1] below 0.1 µM. The same compound yielded a concentration giving a half-maximal response (EC50) in experiment [2] (Homo sapiens, MM1.S) above 10 µM.

`O=Cc1c(O)ccc2cc(-c3ccc(C(=O)NC4CCNC4)s3)ccc12` (stereo not shown) [Compound 73] showed an IC50 in experiment [1] below 0.1 µM. In experiment [2] (Homo sapiens, MM1.S), this compound had an EC50 below 10 µM.

`O=Cc1c(O)ccc2cc(N3CCCC(NCc4ccccn4)C3)ccc12` (stereo not shown) [Compound 108] displayed a half-maximal inhibitory concentration (IC50) in experiment [1] above 1 µM. This compound also displayed an EC50 in experiment [2] (Homo sapiens, MM1.S) above 10 µM.

(Values after patent US9493435B2, “IRE-1α inhibitors” (MannKing Corporation, priority 2009, dated 2016).)
